{"source": "patent US11931347B2", "about": "“Method of screening for agents for differentiating stem cells” (MINERVA BIOTECHNOLOGIES CORPORATION, priority 2015, dated 2024)", "key": {"[1]": {"test_system": "PC-3 prostate cancer cells", "test": "cancer cell migration assay with Fabs and N-10 peptide", "assay_type": "cell-based", "details": "FIG. 140", "experimental": "(§1) The cancer sub-types that were tested were CHL-1 melanoma (MUC1*^+/NME7^+/NME7-X1^+), A2058 melanoma (MUC1*^+/NME7AB^+/NME7-X1^++), SK-OV-3 ovarian cancer (MUC1*^+/NME7^+/NME7-X1^+), A549 lung cancer (MUC1*^LO), T47D breast cancer (MUC1*^+++/NME7AB^+++/NME7-X1^+++), DU145 (MUC1*^++/NME7AB^+++/NME7-X1^+++) prostate cancer and PC-3 (MUC1*^−/NME7AB^+++/NME7-X1^+++) prostate cancer cells.\n(§2) For the cancer cell migration experiment cancer cells were plated at varying densities into an Oris Cell Migration Assay Collagen-1 coated 96-well plate (Platypus Technologies LLC, Madison, Wis.). The Collagen-1 coated 96-well plate incorporates a specific vacuum plug which attaches to the bottom of each well, creating an area in which the cells cannot grow into. Once the cells have been plated at high densities into each well, they are allotted an 18-24 hour time period to attach to the bottom of the wells. Post-24 hour plugs are removed from the plate and then small molecule analogs are added to the wells. Images are taken of each well and represent time 0 (T=0) for each well. Images are taken of the wells at the 24, 48, 72, 96 and 120 hour time points. […] Images are imported into ImageJ (Rasband, W. S., ImageJ, U. S. National Institutes of Health, Bethesda, Md., USA, http://imagej.nih.gov/ij/, 1997-2016.) and the area remaining free of cells is calculated. […]"}, "[2]": {"test_system": "DU145 prostate cancer cells", "test": "cancer cell migration assay with Fabs and N-10 peptide", "assay_type": "cell-based", "details": "FIG. 140", "experimental": "as §1, §2"}, "[3]": {"test_system": "MUC1* extracellular domain - NME1 dimers / NME7AB interaction", "test": "direct binding (gold nanoparticle) assay of MUC1*-NME interaction", "set-up": "species or system human", "details": "previously shown", "text": "WO2009/042815 discloses that in a direct binding assay a series of carboline molecules inhibited the interaction between the extracellular domain of MUC1* and NME proteins, especially NME1 dimers and NME7AB. […] We tested a panel of ten small molecules, including three carbolines (FIG. 1), and biologicals for their ability to inhibit naïve stem cell pluripotency or growth compared to primed state stem cells.\nMost of the novel compounds of the invention are carbolines or carboline-like molecules. […] However, in our nanoparticle assay, we can only determine that a compound disrupts the interaction between MUC1* extracellular domain peptide and NME1 dimers or NME7AB. We cannot tell if the compound does so by binding to MUC1* or its ligand. Recall that our compound hits are first identified in the stem cell drug screening assay for their ability to inhibit stem cell pluripotency or proliferation. […]\nRecall that we had previously shown that some carbolines inhibited the binding of ligands NME1 or NME7AB to the extracellular domain of the MUC1* growth factor receptor. The assay we used was a gold nanoparticle assay that only gives a readout when the targeted interaction is disrupted, so it could not determine whether the carboloines disrupted binding of MUC1* to its ligands by binding to the ligand, NME7AB, or to MUC1*. […]"}, "[4]": {"test_system": "T47D breast cancer cells", "test": "cancer cell migration, invasion assay (Platypus/Oris system)", "assay_type": "cell-based, human", "details": "FIG. 140", "experimental": "We then tested an expanded panel of agents, including agents known to inhibit cancer growth or migration (FIG. 17) (Horm et al., 2012; Meng & Yue, 2014; Zhen et al., 2014), which is characteristic of aggressive or metastatic cancers. We also synthesized a series of novel small molecules, tested them in the stem cell drug screening assay, and then synthesized analogs of the best hits. These small molecules are pictured in FIGS. 18-27. Both the known compounds and the novel compounds were tested in the stem cell drug screening assay. The effects of the small molecules on naïve versus primed state stem cells are shown in the photographs of FIGS. 29-72. The small molecules pictured in FIGS. 17-27 and the biologicals were also tested in a cancer cell migration assay. A structure activity relationship table is seen in FIG. 28. Potent cancer cell migration is characteristic of cancer cell invasion of other tissues and of metastasis. Typical migration assays involve coating a cell culture plate with fibronectin, collagen or the like, plating cancer cells and making a scar across through the cells and measuring the time it takes for the cancer cells to invade the void space. An alternative approach that gives more reliable data is the Platypus System which is a special multi-well cell culture plate with a juxtaposed set of plugs that block off a circle in the center of each well. Cancer cells are plated while the plugs are in place, then they are removed after the cells attach to the plate surface. […] A bar graph summarizing the results of the known anti-migration compounds compared to the anti-MUC1* Fab E6 and the first few small molecules synthesized is shown in FIG. 73. The effect of two novel small molecules MN1186 and MN1194, compared to the known anti-migration molecule SU11274, is shown in FIG. 75A-75U. FIG. 75V is a graph showing the measured inhibition of cancer cell migration at time 0, 24 hours or 48 hours for a number of compounds. […] FIG. 75X is a graph showing how IC50's of the small molecules of the invention were measured and calculated.\nPercent inhibition of cancer cell migration was performed in a wound healing assay. The Percent area that the invading cancer cells occupied, in the presence of a drug candidate compared to the controls, was quantified by Image J cell software which enables cell counting from photographs. IC50's were calculated by performing migration experiments at several compound concentrations and then applying Hill's equation. Inhibition of cancer cell proliferation was quantified by automated cell counting in the presence or absence of a drug candidate. Here, the potency of the drug candidate was simply scored 4 for the highest degree of inhibition and 0 for the lowest. […] The effect of each drug candidate was scored 0-4, with 4 being the highest in inhibiting cell proliferation (FIG. 28).\nFor the cancer cell migration experiment cancer cells were plated at varying densities into an Oris Cell Migration Assay Collagen-1 coated 96-well plate (Platypus Technologies LLC, Madison, Wis.). The Collagen-1 coated 96-well plate incorporates a specific vacuum plug which attaches to the bottom of each well, creating an area in which the cells cannot grow into. Once the cells have been plated at high densities into each well, they are allotted an 18-24 hour time period to attach to the bottom of the wells. Post-24 hour plugs are removed from the plate and then small molecule analogs are added to the wells. Images are taken of each well and represent time 0 (T=0) for each well. Images are taken of the wells at the 24, 48, 72, 96 and 120 hour time points. Data analysis is conducted using the images taken at these specific time point. Images are imported into ImageJ (Rasband, W. S., ImageJ, U. S. National Institutes of Health, Bethesda, Md., USA, http://imagej.nih.gov/ij/, 1997-2016.) and the area remaining free of cells is calculated. […]"}}}
{"substance": "N-10 peptide: truncated MUC1* extracellular domain peptide QFNQYKTEAASRYNLTISDVSVSDVPFPFSAQSGA (SEQ ID NO:4) (N-10 peptide of PSMGFR in which ten amino acids at the N-terminus has been removed)", "values": [{"measurement": "inhibition of migration of PC-3 cells by Fabs and peptide", "setting": "[1]", "result": "only the N-10 peptide inhibited migration"}, {"measurement": "inhibition of migration of DU145 prostate cancer cells by Fabs and peptide", "setting": "[2]", "result": "inhibited migration"}, {"measurement": "competitive inhibition of NME ligand binding to MUC1* extracellular domain", "setting": "[3]", "result": "inhibits their binding to their cognate receptors including the MUC1* extracellular domain"}, {"measurement": "inhibition of migration of T47D cells by Fabs and peptide", "setting": "[4]", "result": "inhibited migration"}]}
